Assay results taken from patent publication US20090042958A1, “Composition and method for treating immune-mediated skin disorders” (Geneblue Corporation, priority 2006, published 2009).
Several values for one entry are separate records, joined by “and”; a condition that tells them apart may be missing. Identical values can stand only once.

How the values were obtained:
Format in all cases: cell-based, human
[1] = system: TNFSF13; assay: Micro array gene expression analysis, TNFSF13; details: keratinocytes, UVB irradiated; treated/untreated (Cy5/Cy3)
Protocol: (§1) Stock solutions of test materials are listed below: • 1. UTL-5d stock: 1.7 mg/ml UTL-5d in a vehicle of 50:50 EtOH:PEG 600 v/v • 2. UTR-1 stock: 3.5 mg/ml UTR-1 in a vehicle of 50:50 EtOH:PEG 600 v/v • 3. Vehicle stock: 50:50 EtOH:PEG 600
(§2) Human epidermal keratinocytes were seeded into 6-well plates and grown at 37±2° C. and 5±1% CO2 using serum free Epilife media supplemented as recommended by the manufacturer. Upon reaching confluency, the media were removed and the cells were treated overnight with Epilife media containing 1% v/v each of the stock solutions above (Vehicle stock and UTR-1 stock). Final concentration was 35 μg/ml for UTR-1. Two wells in the 6-well plate were prepared for each treatment. After applying the test material the cells were incubated for 24 hours at 37±2° C. and 5±1% CO2.
(§3) At the end of the incubation period the culture media was removed via aspiration and replaced with phosphate buffered saline. […]
(§4) The cells were washed once with PBS and then a trypsin/EDTA solution was added to release the cells, followed by the addition of trypsin neutralizing solution. […] In general, (1) the fluorescence intensity of the gene marker should be greater than the background intensity, and (2) the ratio of Cy5/Cy3 (treated/untreated) fluorescence intensity needs to be greater than 1.3 or less than 0.66 to indicate a change of ±30% in gene expression.

[2] = system: EFA6R; assay: Micro array gene expression analysis, EFA6R; details: keratinocytes, UVB irradiated; treated/untreated (Cy5/Cy3)
Protocol: as §1, §2, §3, §4

[3] = system: PTGER1; assay: Micro array gene expression analysis, PTGER1; details: keratinocytes, UVB irradiated; treated/untreated (Cy5/Cy3)
Protocol: as §1, §2, §3, §4

[4] = system: APOBEC1; assay: Micro array gene expression analysis, APOBEC1; details: keratinocytes, UVB irradiated; treated/untreated (Cy5/Cy3)
Protocol: as §1, §2, §3, §4

[5] = system: PTGER3; assay: Micro array gene expression analysis, PTGER3; details: keratinocytes, UVB irradiated; treated/untreated (Cy5/Cy3)
Protocol: as §1, §2, §3, §4

[6] = system: PTGFR; assay: Micro array gene expression analysis, PTGFR; details: keratinocytes, UVB irradiated; treated/untreated (Cy5/Cy3)
Protocol: as §1, §2, §3, §4

[7] = system: PTGIR; assay: Micro array gene expression analysis, PTGIR; details: keratinocytes, UVB irradiated; treated/untreated (Cy5/Cy3)
Protocol: as §1, §2, §3, §4

[8] = system: MAP3K2; assay: Micro array gene expression analysis, MAP3K2; details: keratinocytes, UVB irradiated; treated/untreated (Cy5/Cy3)
Protocol: as §1, §2, §3, §4

[9] = system: TUCAN; assay: Micro array gene expression analysis, TUCAN; details: keratinocytes, UVB irradiated; treated/untreated (Cy5/Cy3)
Protocol: as §1, §2, §3, §4

[10] = system: TNF-α; assay: TNF-α release (ELISA) after UVB irradiation, EpiDerm/keratinocyte model; details: for TNF-α (pg/ml), Sample2 / TNF-α (pg/ml), sample1: TNF-α released into media after UVB ~30 mJ/cm^2; for TNF-α (pg/ml), Sample2: UVB + Vehicle 147; for TNF-α (pg/ml), sample1: UVB + Vehicle 257; for TNF-α Avg.: average of sample 1 and 2, UVB + Vehicle 202
Protocol: as §1, §2
At the end of the incubation period the culture media was removed via aspiration and replaced with phosphate buffered saline. The cells were then irradiated with ˜30 mJ/cm^2 of UVB radiation. Fresh culture media was then applied to the cells and the cells were incubated overnight at 37±2° C. and 5±1% CO2. After the incubation the cell culture media was collected to measure TNF-α release by a commercial ELISA Assay kit.

[11] = system: TNFRSF6B; assay: Micro array gene expression analysis, TNFRSF6B; details: keratinocytes, UVB irradiated; treated/untreated (Cy5/Cy3)
Protocol: as §1, §2, §3, §4

[12] = system: CDCP1; assay: Micro array gene expression analysis, CDCP1; details: keratinocytes, UVB irradiated; treated/untreated (Cy5/Cy3)
Protocol: as §1, §2, §3, §4

[13] = system: TGFB2; assay: Micro array gene expression analysis, TGFB2; details: keratinocytes, UVB irradiated; treated/untreated (Cy5/Cy3)
Protocol: as §1, §2, §3, §4

[14] = system: PTGER2; assay: Micro array gene expression analysis, PTGER2; details: keratinocytes, UVB irradiated; treated/untreated (Cy5/Cy3)
Protocol: as §1, §2, §3, §4

[15] = system: DEFA6; assay: Micro array gene expression analysis, DEFA6; details: keratinocytes, UVB irradiated; treated/untreated (Cy5/Cy3)
Protocol: as §1, §2, §3, §4

[16] = system: EPHB4; assay: Micro array gene expression analysis, EPHB4; details: keratinocytes, UVB irradiated; treated/untreated (Cy5/Cy3)
Protocol: as §1, §2, §3, §4

[17] = system: ITGB6; assay: Micro array gene expression analysis, ITGB6; details: keratinocytes, UVB irradiated; treated/untreated (Cy5/Cy3)
Protocol: as §1, §2, §3, §4

[18] = system: JAK3; assay: Micro array gene expression analysis, JAK3; details: keratinocytes, UVB irradiated; treated/untreated (Cy5/Cy3)
Protocol: as §1, §2, §3, §4

SMILES	TNFSF13 Gene expression (%) [1]	EFA6R Gene expression (%) [2]	PTGER1 Gene expression (%) [3]	APOBEC1 Gene expression (%) [4]	PTGER3 Gene expression (%) [5]	PTGFR Gene expression (%) [6]	PTGIR Gene expression (%) [7]	MAP3K2 Gene expression (%) [8]	TUCAN Gene expression (%) [9]	TNF-α (pg/ml), Sample2 [10]	TNF-α (pg/ml), sample1 [10]	TNF-α Avg. [10]	TNFRSF6B Gene expression (%) [11]	CDCP1 Gene expression (%) [12]	TGFB2 Gene expression (%) [13]	PTGER2 Gene expression (%) [14]	DEFA6 Gene expression (%) [15]	EPHB4 Gene expression (%) [16]	ITGB6 Gene expression (%) [17]	JAK3 Gene expression (%) [18]
Cc1cc(C(=O)Nc2ccc(Cl)cc2)no1 [UTL-5d]	47.0%	29.2%	33.8%	29.2%	42.7%	24.5%	27.0%	59.9%	26.0%	67 pg/mL	61 pg/mL	64 pg/mL	52.1%	44.1%	38.2%	39.9%	44.3%	35.8%	24.3%	34.7% and 29.3%
Cc1cc(C(=O)O)no1 [UTR-1]	42.5%	37.5%	28.6%	33.3%	40.8%	40.0%	39.4%	59.2%	33.3%	119 pg/mL	120 pg/mL	120 pg/mL	68.0%	65.6%	57.9%	58.0%	38.0%	43.3%	30.0%	38.6% and 41.7%
